{"source": "patent US20050095287A1", "about": "“Fosinopril composition” (priority 2003, published 2005)", "assay": "Solubility of the active drug (statement)", "type": "physicochemical", "data": [{"smiles": "CCC(=O)O[C@@H](O[P@](=O)(CCCCc1ccccc1)CC(=O)N1C[C@H](C2CCCCC2)C[C@H]1C(=O)O)C(C)C", "note": "[Fosinipril, Fosinopril]", "values": [{"measurement": "solubility", "value": "highly soluble"}]}]}
